{"source": "paper PMC3477139", "about": "(PLoS ONE, 2012)", "key": {"[1]": {"target": "T1, human GLP-1R (Homo sapiens, UniProt P43220)", "T1 construct": "expressed in transfected cells; vector pcDNA5/FRT", "T1 sequence (P43220 24-463)": "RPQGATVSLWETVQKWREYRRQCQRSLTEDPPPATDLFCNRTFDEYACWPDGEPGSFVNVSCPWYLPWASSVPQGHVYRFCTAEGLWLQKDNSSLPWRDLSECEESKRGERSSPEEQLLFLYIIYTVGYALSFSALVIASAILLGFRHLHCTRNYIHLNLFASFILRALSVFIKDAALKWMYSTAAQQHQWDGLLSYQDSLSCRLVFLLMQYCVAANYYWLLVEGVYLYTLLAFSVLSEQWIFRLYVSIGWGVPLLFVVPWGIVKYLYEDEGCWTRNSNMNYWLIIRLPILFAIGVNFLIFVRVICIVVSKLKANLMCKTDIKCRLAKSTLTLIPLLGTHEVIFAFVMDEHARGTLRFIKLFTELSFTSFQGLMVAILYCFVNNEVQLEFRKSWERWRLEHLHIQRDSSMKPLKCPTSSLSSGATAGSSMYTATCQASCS", "experiment": "cAMP generation by membranes from HEK-GLP-1R cells", "type": "biochemical", "conditions": "5 min, 30°C, IBMX", "protocol": "(§1) The cAMP was extracted from either intact cell or membrane preparations using a method identical to that for extraction of Ins(1,4,5)P3 [22]. Levels of cAMP were then determined by a competitive radioreceptor assay using binding protein purified from bovine adrenal glands and related to cellular protein assessed by Bradford assay.\n(§2) Concentration-response curves were fitted using GraphPad Prism (GraphPad Software Inc., CA) using a standard four parameter logistic equation. All data are representative of n≥3 or are presented as mean+/±s.e.m., where n = 3 unless otherwise stated. Statistical analysis was by oneway ANOVA and where P<0.05, followed by Bonferroni's or Dunnett's multiple range test as indicated. Alternatively analysis was performed by Student's t-test. Where potency estimates are given these are pEC50 values (−log10 of the molar concentration giving 50% of the maximal response)."}, "[2]": {"test_system": "GLP-1R", "conditions": "ref [7]; cited from earlier work"}, "[3]": {"target": "T2, GLP-1R (native, rat insulinoma cell line INS-1E) (Rattus norvegicus, UniProt P32301)", "T2 construct": "the rat insulinoma cell line, INS-1E, with native expression of the GLP-1R; endogenous in cells; host or cells: INS-1E rat insulinoma cells (gift of Prof. C.B. Wollheim)", "T2 sequence (P32301 22-463)": "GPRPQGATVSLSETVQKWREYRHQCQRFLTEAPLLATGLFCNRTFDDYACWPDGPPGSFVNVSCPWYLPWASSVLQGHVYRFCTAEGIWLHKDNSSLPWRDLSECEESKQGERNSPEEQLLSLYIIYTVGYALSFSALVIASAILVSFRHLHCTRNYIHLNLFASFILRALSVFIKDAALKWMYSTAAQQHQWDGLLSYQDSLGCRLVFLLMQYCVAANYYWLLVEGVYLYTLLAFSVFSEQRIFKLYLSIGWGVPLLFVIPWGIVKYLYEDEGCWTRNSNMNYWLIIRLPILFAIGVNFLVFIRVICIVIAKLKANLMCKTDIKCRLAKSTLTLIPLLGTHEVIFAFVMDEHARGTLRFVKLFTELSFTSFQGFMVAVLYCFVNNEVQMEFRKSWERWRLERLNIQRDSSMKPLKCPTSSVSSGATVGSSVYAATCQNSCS", "experiment": "ERK activation (phospho-ERK Western blot) in INS-1E cells", "type": "cell-based", "conditions": "single ligands, 5 min; much lower concentrations of GLP-1 7–36 amide required", "protocol": "(§3) HEK-Flp-In cells with stable recombinant expression of the human GLP-1R (HEK-GLP-1R) were cultured in DMEM with high glucose supplemented with 10% FBS, 100 µg/ml streptomycin and 100 units/ml penicillin sulphate. These cells were originally generated by transfection of HEK-Flp-In cells (Invitrogen: Paisley, U.K.) with pcDNA5/FRT containing the human GLP-1R. […] INS-1E cells were kindly provided by Prof. C.B. Wollheim of the University of Geneva, Switzerland [19]. These cells were used between passages 65–90 and cultured in RPMI media containing 11.1 mM glucose, 5% heat-inactivated FBS, 100 µg/ml streptomycin, 100 units/ml penicillin sulphate, 100 units/ml neomycin, 50 µM β-mercaptoethanol, 10 mM HEPES and 1 mM sodium pyruvate. All cells were cultured at 37°C in a 5% CO2 humidified atmosphere and passaged at confluence.\nas §2"}, "[4]": {"test_system": "adenylyl cyclase", "experiment": "cAMP generation by direct activation of adenylyl cyclase with forskolin", "type": "biochemical", "conditions": "data not shown", "protocol": "Generation of cAMP by cell membranes was determined based on previously published methods, [21]. Membranes were prepared from confluent cell monolayers grown in 80 cm^2 flasks. Cells were washed with 5 ml HBS (154 mM NaCl, 10 mM HEPES, pH 7.4, 37°C), detached using harvesting buffer (154 mM NaCl, 10 mM HEPES, 5.4 mM EDTA, pH 7.4, 37°C) and collected by centrifugation (200 g, 2 min, 4°C). The cell pellet was resuspended in 1 ml of homogenization buffer (10 mM HEPES, 10 mM EDTA, pH 7.4) and sonicated (Sonifier Ultrasonic Cell Disruptor; Branson, CT) at 30% of the maximal amplitude for 3×5 s at ∼30 s intervals before centrifugation (30,000 g, 4°C, 10 min). After removal of the supernatant, pellets were collected in resuspension buffer (10 mM HEPES, 0.1 mM EDTA, pH 7.4), protein concentration adjusted to 1 mg/ml and stored in aliquots at −80°C until assay. Generation of cAMP was determined in 100 µl containing: 10 mM HEPES, 12 mM MgCl2, 60 mM NaCl, 1.2 mM EDTA, 1.2% w/v BSA, 5% DMSO, 480 µM ATP, 2 mM IBMX, 10 µM GTP, 20 µg membrane and ligands as indicated. […]\nas §1"}, "[5]": {"test_system": "GLP-1R", "conditions": "cited from earlier work", "from_the_text": "Such proteolysis is thought to remove biological activity."}, "[6]": {"target": "T2, GLP-1R (native, rat insulinoma cell line INS-1E)", "experiment": "cAMP generation in INS-1E cells", "type": "cell-based", "protocol": "as §3\nConfluent monolayers of HEK-GLP-1R cells cultured in 24-well plates pre-coated with poly-D-lysine (0.1% w/v) where washed twice with 0.5 ml Krebs-HEPES buffer (KHB, composition: 10 mM HEPES; 4.2 mM NaHCO3; 11.7 mM D-glucose; 1.18 mM MgSO4·7H2O; 1.18 mM KH2PO4; 4.69 mM KCl; 118 mM NaCl; 1.3 mM CaCl2·2H2O; pH 7.4) containing 0.1% (w/v) BSA (KHB-BSA) before incubation (10 min, 37°C) in 360 µl KHB-BSA containing 500 µM isobutylmethylxanthine (IBMX). Ligands or vehicle control (40 µl) were added and reactions terminated after the appropriate times by replacement of the aqueous phase with ice-cold 0.5 M trichloroacetic acid. INS-1E cells grown to confluence in 24-well plates were treated similarly with the exception that after washing in KHB, cells were incubated in 200 µl KHB-BSA containing 1.4 mM glucose without IBMX for 2 h followed by challenge with ligands (or vehicle) for 15 min at 37°C in 400 µl KHB-BSA, in the presence of 10 mM glucose and 500 µM IBMX. Reactions were terminated as above.\nas §1, §2"}, "[7]": {"test_system": "GLP-1R", "conditions": "unclear whether additivity or true potentiation; ref [33]; cited from earlier work"}}}
{"smiles": "CC(C)(C)Nc1nc2cc(Cl)c(Cl)cc2nc1S(C)(=O)=O", "note": "[compound 2, 6,7-dichloro-2-methylsulfonyl-3-N-tert-butylaminoquinoxaline]", "values": [{"measurement": "cAMP response in membranes (in words)", "setting": "[1]", "value": "enhanced the ability of GLP-1 9–36 amide to increase cAMP"}, {"measurement": "cAMP level (membranes)", "setting": "[1]; compound 2 alone, 3 µM, mean±s.e.m., n = 3", "value": "2623±269", "unit": "pmol/mg protein"}, {"measurement": "effect on GLP-1 7–36 amide-mediated internalization of the GLP-1R", "setting": "[2]", "value": "can inhibit GLP-1 7–36 amide-mediated internalization of the GLP-1R"}, {"measurement": "ERK activation (INS-1E)", "setting": "[3]", "value": "robust and approximately equivalent activation of ERK"}, {"measurement": "effect on forskolin-stimulated cAMP generation", "setting": "[4]", "value": "inability of compound 2 to influence cAMP generation"}, {"measurement": "effect at the GLP-1R (in words)", "setting": "[5]; ago-allosteric modulator, ref [15]", "value": "not only enhancing affinity of the GLP-1R for GLP-1 but providing effective direct agonism"}, {"measurement": "effect on affinity for GLP-1 and on its potency or intrinsic activity", "setting": "[5]; ref [7], [15]", "value": "modestly increases the affinity for GLP-1 it has little impact on potency or intrinsic activity"}, {"measurement": "interaction of compound 2 and GLP-1 7–36 amide on ERK activation", "setting": "[5]; ref [16]", "value": "lack of interaction between compound 2 and GLP-1 7–36 amide on ERK activation"}, {"measurement": "cAMP elevation (INS-1E)", "setting": "[6]; 3 µM compound 2 alone, 15 min", "value": "40±8", "unit": "pmol/mg protein"}, {"measurement": "cAMP response in INS-1E (in words)", "setting": "[6]; 15 min, 10 mM glucose, IBMX", "value": "elevated cAMP with low-potency"}, {"measurement": "Emax as % of that evoked by GLP-1 7–36 amide, cAMP (INS-1E)", "setting": "[6]; compound 2 alone, concentrations greater than 10 µM not tested", "value": 34, "unit": "%"}, {"measurement": "effect on activity of GLP-1 9–36 amide", "setting": "[7]", "value": "may increase the activity of GLP-1 9–36 amide"}]}
